The target of one series is T1, CCK-2R (Rattus norvegicus, UniProt P30553).
T1 construct: The CCK-2R expressing rat pancreatic tumor cells AR4-2J; host or cells: AR4-2J rat pancreatic tumor cells
T1 sequence (P30553 1-452): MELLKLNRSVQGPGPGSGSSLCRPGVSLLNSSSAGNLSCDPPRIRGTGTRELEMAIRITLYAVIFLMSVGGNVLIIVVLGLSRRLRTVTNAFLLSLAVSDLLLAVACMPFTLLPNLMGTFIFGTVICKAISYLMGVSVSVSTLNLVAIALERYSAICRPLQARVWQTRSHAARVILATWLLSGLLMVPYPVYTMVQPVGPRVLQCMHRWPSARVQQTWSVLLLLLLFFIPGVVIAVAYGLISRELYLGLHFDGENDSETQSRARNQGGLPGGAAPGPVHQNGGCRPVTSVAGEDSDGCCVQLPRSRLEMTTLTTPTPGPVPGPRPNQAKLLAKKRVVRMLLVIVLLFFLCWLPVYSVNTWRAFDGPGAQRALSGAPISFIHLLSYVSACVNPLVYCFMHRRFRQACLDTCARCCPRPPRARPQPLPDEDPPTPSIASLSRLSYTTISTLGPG
Nature of the series: Determination of IC50: CCK-2R affinity on AR4-2J cells, competition with [^177Lu]Lu-DOTA-PP-F11N. It counts as binding. In a few lines: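 Competitive displacement of 0.3 pmol/well [177Lu]Lu-DOTA-PP-F11N by compounds (10^-10 to 10^-4 M) on AR4-2J cells in BSA-supplemented medium, 3 h at 37 °C. Free label was collected from medium plus PBS rinse, and cell-bound label was recovered with 1 M NaOH, both measured by γ-counter. Each IC50 was determined twice, in triplicate.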

The nature of series [1]: n-Octanol-PBS distribution coefficient (logD7.4). The format is physicochemical. The note with it: pH = 7.4, ^177Lu-labeled. Here is the method:
Approximately 1 MBq of the labeled tracer was dissolved in 1 mL of a 1/1 mixture (v/v) of phosphate buffered saline (PBS, pH = 7.4) and n-octanol in an Eppendorf tube (1.5 mL). After vigorous mixing of the suspension for 3 min at rt, the vial was centrifuged at 9,000 rpm for 5 min (Biofuge 15, Heraeus Sepatech, Osterode, Germany) and 200 µL aliquots of both layers were measured in a γ-counter. The experiment was repeated at least five times.

Where [2] appears, read: AR4-2J cells; ^natLu-labeled; read-out: IC50 [nM] (n = 3), ^natLu-labeled.
Setting [3] is: read-out: IC50 [nM] (n = 3), ^natLu-labeled; AR4-2J cells; ^natLu-labeled.

The structures appear in SMILES notation. Where two headings read alike, the source gives them in different places. Starred links: 1 amine or outer side, 2 acyl side, 3 side chain; linkers in the order of their positions; H or OH if unused. Non-standard residues stand in square brackets, D forms with d. Residues, ends and D or L forms follow the SMILES beside them. *: point of attachment. DOTAGA = O=C(O)CN1CCN(CC(=O)O)CCN(C(CCC(=O)*)C(=O)O)CCN(CC(=O)O)CC1; X2 = O=C(O)CN1CCN(CC(=O)O)CCN([C@H](CCC(=O)*)C(=O)O)CCN(CC(=O)O)CC1; Benzoyl(4-SiFtBu2) = CC(C)(C)[Si](F)(c1ccc(C(=O)*)cc1)C(C)(C)C; d(γGlu) = O=C(O)[C@@H](CCC(=O)[*:2])N[*:1]; Nle = CCCC[C@H](N)C(=O)O; dDap = NC[C@@H](N)C(=O)O

As a reminder, the IC50 is the point on the concentration scale where inhibition reaches its midpoint. Consider `CCCC[C@H](NC(=O)[C@H](Cc1c[nH]c2ccccc12)NC(=O)CNC(=O)[C@H](Cc1ccc(O)cc1)NC(=O)[C@H](C)NC(=O)CC[C@@H](NC(=O)[C@@H](CNC(=O)c1ccc([Si](F)(C(C)(C)C)C(C)(C)C)cc1)NC(=O)CC[C@@H](NC(=O)CC[C@@H](NC(=O)CC[C@@H](NC(=O)CC[C@@H](NC(=O)CC[C@@H](NC(=O)CC[C@H](C(=O)O)N1CCN(CC(=O)O)CCN(CC(=O)O)CCN(CC(=O)O)CC1)C(=O)O)C(=O)O)C(=O)O)C(=O)O)C(=O)O)C(=O)O)C(=O)N[C@@H](CC(=O)O)C(=O)N[C@@H](Cc1ccccc1)C(N)=O` [DOTAGA-MG-SiFA-14, DOTAGA-γ-glu-[dap(SiFA)^5]γ-F11N] ({X2-d(γGlu)-d(γGlu)-d(γGlu)-d(γGlu)-d(γGlu)}-[dDap](Benzoyl(4-SiFtBu2))[d(γGlu)]AYGW[Nle]DF-NH2), for which the concentration for half-maximal inhibition (IC50) at CCK-2R (setting [2]) turned out to be 111 ± 13 nM. For the same compound, the “logD7.4 (n ≥ 5), ^177Lu-labeled” value in series [1] is −2.23 ± 0.07.
For `CCCC[C@H](NC(=O)[C@H](Cc1c[nH]c2ccccc12)NC(=O)CNC(=O)[C@H](Cc1ccc(O)cc1)NC(=O)[C@H](C)NC(=O)CC[C@@H](NC(=O)CC[C@@H](NC(=O)[C@@H](CNC(=O)c1ccc([Si](F)(C(C)(C)C)C(C)(C)C)cc1)NC(=O)CC[C@@H](NC(=O)CC[C@@H](NC(=O)CC[C@@H](NC(=O)CC[C@@H](NC(=O)CC[C@H](C(=O)O)N1CCN(CC(=O)O)CCN(CC(=O)O)CCN(CC(=O)O)CC1)C(=O)O)C(=O)O)C(=O)O)C(=O)O)C(=O)O)C(=O)O)C(=O)N[C@@H](CC(=O)O)C(=O)N[C@@H](Cc1ccccc1)C(N)=O` [DOTAGA-MG-SiFA-15, DOTAGA-γ-glu-[dap(SiFA)^4]γ-F11N] ({X2-d(γGlu)-d(γGlu)-d(γGlu)-d(γGlu)}-[dDap](Benzoyl(4-SiFtBu2))[d(γGlu)][d(γGlu)]AYGW[Nle]DF-NH2) the same measures were 89.7 ± 14.5 nM and −2.34 ± 0.05.
In the case of `CCCC[C@H](NC(=O)[C@H](Cc1c[nH]c2ccccc12)NC(=O)CNC(=O)[C@H](Cc1ccc(O)cc1)NC(=O)[C@H](C)NC(=O)CC[C@@H](NC(=O)CC[C@@H](NC(=O)CC[C@@H](NC(=O)[C@@H](CNC(=O)c1ccc([Si](F)(C(C)(C)C)C(C)(C)C)cc1)NC(=O)CC[C@@H](NC(=O)CC[C@@H](NC(=O)CC[C@@H](NC(=O)CC[C@H](C(=O)O)N1CCN(CC(=O)O)CCN(CC(=O)O)CCN(CC(=O)O)CC1)C(=O)O)C(=O)O)C(=O)O)C(=O)O)C(=O)O)C(=O)O)C(=O)N[C@@H](CC(=O)O)C(=O)N[C@@H](Cc1ccccc1)C(N)=O` [DOTAGA-MG-SiFA-16, DOTAGA-γ-glu-[dap(SiFA)^3]γ-F11N] ({X2-d(γGlu)-d(γGlu)-d(γGlu)}-[dDap](Benzoyl(4-SiFtBu2))[d(γGlu)][d(γGlu)][d(γGlu)]AYGW[Nle]DF-NH2), the 50% inhibitory concentration (IC50) on CCK-2R (setting [2]) was 68.5 ± 11.4 nM. In series [1], the “logD7.4 (n ≥ 5), ^177Lu-labeled” value is −2.57 ± 0.06.
As to `CCCC[C@H](NC(=O)[C@H](Cc1c[nH]c2ccccc12)NC(=O)CNC(=O)[C@H](Cc1ccc(O)cc1)NC(=O)[C@H](C)NC(=O)CC[C@@H](NC(=O)CC[C@@H](NC(=O)CC[C@@H](NC(=O)CC[C@@H](NC(=O)[C@@H](CNC(=O)c1ccc([Si](F)(C(C)(C)C)C(C)(C)C)cc1)NC(=O)CC[C@@H](NC(=O)CC[C@@H](NC(=O)CCC(C(=O)O)N1CCN(CC(=O)O)CCN(CC(=O)O)CCN(CC(=O)O)CC1)C(=O)O)C(=O)O)C(=O)O)C(=O)O)C(=O)O)C(=O)O)C(=O)N[C@@H](CC(=O)O)C(=O)N[C@@H](Cc1ccccc1)C(N)=O` (stereo partly shown) [DOTAGA-MG-SiFA-17, DOTAGA-γ-glu-[dap(SiFA)^2]γ-F11N] ({DOTAGA-d(γGlu)-d(γGlu)}-[dDap](Benzoyl(4-SiFtBu2))[d(γGlu)][d(γGlu)][d(γGlu)][d(γGlu)]AYGW[Nle]DF-NH2), the IC50 at CCK-2R (setting [3]) was found to be 51.3 ± 9.3 nM. For the same compound, in series [1], the “logD7.4 (n ≥ 5), ^177Lu-labeled” value was −2.26 ± 0.05.
As to `CCCC[C@H](NC(=O)[C@H](Cc1c[nH]c2ccccc12)NC(=O)CNC(=O)[C@H](Cc1ccc(O)cc1)NC(=O)[C@H](C)NC(=O)CC[C@@H](NC(=O)CC[C@@H](NC(=O)CC[C@@H](NC(=O)CC[C@@H](NC(=O)CC[C@@H](NC(=O)[C@@H](CNC(=O)c1ccc([Si](F)(C(C)(C)C)C(C)(C)C)cc1)NC(=O)CC[C@@H](NC(=O)CCC(C(=O)O)N1CCN(CC(=O)O)CCN(CC(=O)O)CCN(CC(=O)O)CC1)C(=O)O)C(=O)O)C(=O)O)C(=O)O)C(=O)O)C(=O)O)C(=O)N[C@@H](CC(=O)O)C(=O)N[C@@H](Cc1ccccc1)C(N)=O` (stereo partly shown) [DOTAGA-MG-SiFA-18, DOTAGA-γ-glu-[dap(SiFA)^1]γ-F11N] ({DOTAGA-d(γGlu)}-[dDap](Benzoyl(4-SiFtBu2))[d(γGlu)][d(γGlu)][d(γGlu)][d(γGlu)][d(γGlu)]AYGW[Nle]DF-NH2), the half-inhibitory concentration (IC50) at CCK-2R (setting [3]) was 33 ± 11.1 nM. For the same compound, in series [1], the “logD7.4 (n ≥ 5), ^177Lu-labeled” value was −2.50 ± 0.02.
The corresponding values for `CCCC[C@H](NC(=O)[C@H](Cc1c[nH]c2ccccc12)NC(=O)CNC(=O)[C@H](Cc1ccc(O)cc1)NC(=O)[C@H](C)NC(=O)[C@@H](CCC(=O)O)NC(=O)[C@@H](CCC(=O)O)NC(=O)[C@@H](CCC(=O)O)NC(=O)[C@@H](CCC(=O)O)NC(=O)[C@@H](CCC(=O)O)NC(=O)[C@@H](CCC(=O)O)NC(=O)[C@@H](CCC(=O)O)NC(=O)[C@@H](CNC(=O)c1ccc([Si](F)(C(C)(C)C)C(C)(C)C)cc1)NC(=O)CCC(C(=O)O)N1CCN(CC(=O)O)CCN(CC(=O)O)CCN(CC(=O)O)CC1)C(=O)N[C@@H](CC(=O)O)C(=O)N[C@@H](Cc1ccccc1)C(N)=O` (stereo partly shown) [DOTAGA-MG-SiFA-20, DOTAGA-dap(SiFA)-glu-F11N] ({DOTAGA}-[dDap](Benzoyl(4-SiFtBu2))[dE][dE][dE][dE][dE][dE][dE]AYGW[Nle]DF-NH2) are 58 ± 11 nM and −2.19 ± 0.08.
The corresponding values for `CCCC[C@H](NC(=O)[C@H](Cc1c[nH]c2ccccc12)NC(=O)CNC(=O)[C@H](Cc1ccc(O)cc1)NC(=O)[C@H](C)NC(=O)[C@@H](CCC(=O)O)NC(=O)[C@@H](CCC(=O)O)NC(=O)[C@@H](CCC(=O)O)NC(=O)[C@@H](CCC(=O)O)NC(=O)[C@@H](CCC(=O)O)NC(=O)[C@@H](CCC(=O)O)NC(=O)[C@@H](CCC(=O)O)NC(=O)[C@@H](CCC(=O)O)NC(=O)[C@@H](CNC(=O)c1ccc([Si](F)(C(C)(C)C)C(C)(C)C)cc1)NC(=O)CCC(C(=O)O)N1CCN(CC(=O)O)CCN(CC(=O)O)CCN(CC(=O)O)CC1)C(=O)N[C@@H](CC(=O)O)C(=O)N[C@@H](Cc1ccccc1)C(N)=O` (stereo partly shown) [DOTAGA-MG-SiFA-21, DOTAGA-dap(SiFA)-(glu)2-F11N] ({DOTAGA}-[dDap](Benzoyl(4-SiFtBu2))[dE][dE][dE][dE][dE][dE][dE][dE]AYGW[Nle]DF-NH2) are 55.3 ± 7.8 nM and −2.84 ± 0.04.
With `CCCC[C@H](NC(=O)[C@H](Cc1c[nH]c2ccccc12)NC(=O)CNC(=O)[C@H](Cc1ccc(O)cc1)NC(=O)[C@H](C)NC(=O)CC[C@@H](NC(=O)CC[C@@H](NC(=O)CC[C@@H](NC(=O)CC[C@@H](NC(=O)CC[C@@H](NC(=O)CC[C@@H](NC(=O)CC[C@@H](NC(=O)[C@@H](CNC(=O)c1ccc([Si](F)(C(C)(C)C)C(C)(C)C)cc1)NC(=O)CCC(C(=O)O)N1CCN(CC(=O)O)CCN(CC(=O)O)CCN(CC(=O)O)CC1)C(=O)O)C(=O)O)C(=O)O)C(=O)O)C(=O)O)C(=O)O)C(=O)O)C(=O)N[C@@H](CC(=O)O)C(=O)N[C@@H](Cc1ccccc1)C(N)=O` (stereo partly shown) [DOTAGA-MG-SiFA-22, DOTAGA-dap(SiFA)-γ-glu-γ-F11N], on CCK-2R (setting [3]), the IC50 was 29.5 ± 1.9 nM. Also, the “logD7.4 (n ≥ 5), ^177Lu-labeled” value in series [1] is given as −2.16 ± 0.09.

The values are drawn from EP4631959A2, “NOVEL MINIGASTRIN-DERIVED CHOLECYSTOKININ 2 RECEPTOR BINDING MOLECULES FOR IMAGING AND TARGETED RADIOTHERAPY” (priority 2022, dated 2024).
